Measured values as given in patent US6509371B1, “Compositions containing Bergamottin for increasing the oral bioavailability of pharmaceutical agents” (Warner-Lambert Company, priority 1997, dated 2003).
Read-outs that look alike come from different tables or passages of the source.

Tests used:
[1] = target: T1, P450 3A4 (Homo sapiens, UniProt P08684); test: BG-mediated inactivation of P450 3A4 in a reconstituted system, testosterone 6β-hydroxylation activity; settings: reconstituted system
Target sequence in this assay (P08684 with tags, fused parts or gaps): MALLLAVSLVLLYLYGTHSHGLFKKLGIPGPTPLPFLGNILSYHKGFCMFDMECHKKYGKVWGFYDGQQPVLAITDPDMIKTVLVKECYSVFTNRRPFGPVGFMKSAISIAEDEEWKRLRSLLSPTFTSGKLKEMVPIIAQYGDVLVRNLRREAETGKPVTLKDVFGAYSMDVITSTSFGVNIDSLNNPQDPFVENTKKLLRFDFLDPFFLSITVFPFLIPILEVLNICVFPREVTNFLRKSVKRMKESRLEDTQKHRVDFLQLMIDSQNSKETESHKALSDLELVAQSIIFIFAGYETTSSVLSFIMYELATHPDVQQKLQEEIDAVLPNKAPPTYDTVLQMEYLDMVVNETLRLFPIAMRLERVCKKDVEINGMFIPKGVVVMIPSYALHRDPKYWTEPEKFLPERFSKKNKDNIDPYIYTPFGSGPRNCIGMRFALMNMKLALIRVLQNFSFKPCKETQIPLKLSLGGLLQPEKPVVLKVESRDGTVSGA

[2] = cited from earlier work
[3] = target: T1, P450 3A4; settings: in vivo; cited from earlier work
Target sequence in this assay (P08684 whole entry): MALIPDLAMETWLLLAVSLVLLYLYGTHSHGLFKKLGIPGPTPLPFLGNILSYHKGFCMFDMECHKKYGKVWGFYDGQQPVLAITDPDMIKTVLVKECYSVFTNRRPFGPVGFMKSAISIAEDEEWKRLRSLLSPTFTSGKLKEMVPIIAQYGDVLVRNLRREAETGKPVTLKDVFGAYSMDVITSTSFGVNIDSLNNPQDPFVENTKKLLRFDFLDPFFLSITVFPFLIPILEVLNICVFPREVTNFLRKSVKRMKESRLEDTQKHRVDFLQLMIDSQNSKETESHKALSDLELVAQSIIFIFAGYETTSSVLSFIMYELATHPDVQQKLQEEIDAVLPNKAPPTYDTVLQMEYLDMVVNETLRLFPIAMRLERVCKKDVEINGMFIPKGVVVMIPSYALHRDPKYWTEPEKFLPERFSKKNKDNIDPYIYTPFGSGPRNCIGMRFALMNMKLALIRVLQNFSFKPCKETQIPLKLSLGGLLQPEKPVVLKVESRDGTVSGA

[4] = target: T1, P450 3A4; settings: other potent inactivators of P450 3A4, literature; cited from earlier work
Target sequence in this assay (P08684 whole entry): as above

CC(=CCOc1c2ccoc2cc2oc(=O)ccc12)CCC(O)C(C)(C)O (stereo not drawn) [6′,7′-dihydroxybergamottin]
Kinactivation (maximal rate constant of inactivation) [1]: 0.16 min⁻¹

COc1ccc(CCN2CCC(Nc3nc4ccccc4n3Cc3ccc(F)cc3)CC2)cc1 [Astemizole]
Oral Bioavailability ([2]; oral): Low
Fraction Metabolized [3]: >90%

CC[C@H]1OC(=O)[C@H](C)[C@@H](O[C@H]2C[C@@](C)(OC)[C@@H](O)[C@H](C)O2)[C@H](C)[C@@H](O[C@@H]2O[C@H](C)C[C@H](N(C)C)[C@H]2O)[C@](C)(O)C[C@@H](C)CN(C)[C@H](C)[C@@H](O)[C@]1(C)O [Azithromycin]
Oral Bioavailability ([2]; oral): 35-45%

NC(=O)N1c2ccccc2C=Cc2ccccc21 [Carbamazepine]
Oral Bioavailability ([2]; oral): >70%
Fraction Metabolized [3]: >90%

COc1cc(N)c(Cl)cc1C(=O)NC1CCN(CCCOc2ccc(F)cc2)CC1OC (stereo not drawn) [Cisapride]
Oral Bioavailability ([2]; oral): 35-40%

CC[C@H]1OC(=O)[C@H](C)[C@@H](O[C@H]2C[C@@](C)(OC)[C@@H](O)[C@H](C)O2)[C@H](C)[C@@H](O[C@@H]2O[C@H](C)C[C@H](N(C)C)[C@H]2O)[C@](C)(OC)C[C@@H](C)C(=O)[C@H](C)[C@@H](O)[C@]1(C)O [Clarithromycin]
Oral Bioavailability ([2]; oral): 50-55%
Fraction Metabolized [3]: >70%

CN1C[C@H](C(=O)N[C@]2(C)O[C@@]3(O)[C@@H]4CCCN4C(=O)[C@H](Cc4ccccc4)N3C2=O)C=C2c3cccc4[nH]cc(c34)C[C@H]21 [Ergotamine]
Oral Bioavailability ([2]; oral): <1%
Fraction Metabolized [3]: >90%

CC[C@H]1OC(=O)[C@H](C)[C@@H](O[C@H]2C[C@@](C)(OC)[C@@H](O)[C@H](C)O2)[C@H](C)[C@@H](O[C@@H]2O[C@H](C)C[C@H](N(C)C)[C@H]2O)[C@](C)(O)C[C@@H](C)C(=O)[C@H](C)[C@@H](O)[C@]1(C)O [Erythromycin]
Oral Bioavailability ([2]; oral): 30-65%

COc1cc([C@@H]2c3cc4c(cc3[C@@H](O[C@@H]3O[C@@H]5CO[C@@H](C)O[C@H]5[C@H](O)[C@H]3O)[C@H]3COC(=O)[C@H]23)OCO4)cc(OC)c1O [Etoposide]
Oral Bioavailability ([2]; oral): 35-70%

CCOC(=O)C1=C(C)NC(C)=C(C(=O)OC)C1c1cccc(Cl)c1Cl (stereo not drawn) [Felodipine]
Oral Bioavailability ([2]; oral): 15-25%

CC(C)n1c(/C=C/C(O)CC(O)CC(=O)O)c(-c2ccc(F)cc2)c2ccccc21 (stereo not drawn) [Fluvastatin]
Oral Bioavailability ([2]; oral): 50-9%
Fraction Metabolized [3]: ˜90%

COC(=O)C1=C(C)NC(C)=C(C(=O)OC(C)C)C1c1cccc2nonc12 (stereo not drawn) [Isradipine]
Oral Bioavailability ([2]; oral): 15-25%
Fraction Metabolized [3]: >90%

CCC(C)n1ncn(-c2ccc(N3CCN(c4ccc(OCC5COC(Cn6cncn6)(c6ccc(Cl)cc6Cl)O5)cc4)CC3)cc2)c1=O (stereo not drawn) [Itraconazole]
Oral Bioavailability ([2]; oral): 44-55%
Fraction Metabolized [3]: >90%

Cc1ncc2n1-c1ccc(Cl)cc1C(c1ccccc1F)=NC2 [Midazolam]
Oral Bioavailability ([2]; in vivo, po): 40-50%
Fraction Metabolized [3]: >90%

COC(=O)C1=C(C)NC(C)=C(C(=O)OCCN(C)Cc2ccccc2)C1c1cccc([N+](=O)[O-])c1 (stereo not drawn) [Nicardipine]
Oral Bioavailability ([2]; oral): 20-30%
Fraction Metabolized [3]: >90%

COCCOC(=O)C1=C(C)NC(C)=C(C(=O)OC(C)C)C1c1cccc([N+](=O)[O-])c1 (stereo not drawn) [Nimodipine]
Oral Bioavailability ([2]; oral): 15-10%

COC(=O)C1=C(C)NC(C)=C(C(=O)OCC(C)C)C1c1ccccc1[N+](=O)[O-] (stereo not drawn) [Nisoldipine]
Oral Bioavailability ([2]; oral): ˜5%

CCOC(=O)C1=C(C)NC(C)=C(C(=O)OC)C1c1cccc([N+](=O)[O-])c1 (stereo not drawn) [Nitrendipine]
Oral Bioavailability ([2]; oral): 16-6%
Fraction Metabolized [3]: >90%

O=c1[nH]c2ccccc2n1C1CCN(CCCC(c2ccc(F)cc2)c2ccc(F)cc2)CC1 [Pimozide]
Fraction Metabolized [3]: >90%

CC[C@H](C)C(=O)O[C@H]1C[C@H](O)C=C2C=C[C@H](C)[C@H](CC[C@@H](O)C[C@@H](O)CC(=O)O)[C@H]21 [Pravastatin]
Oral Bioavailability ([2]; oral): 25-10%
Fraction Metabolized [3]: >50%

CO[C@H]1/C=C/O[C@@]2(C)Oc3c(C)c(O)c4c(c3C2=O)C2=NC3(CCN(CC(C)C)CC3)NC2=C(NC(=O)/C(C)=C\C=C\[C@H](C)[C@H](O)[C@@H](C)[C@@H](O)[C@@H](C)[C@H](OC(C)=O)[C@@H]1C)C4=O [Rifabutin]
Oral Bioavailability ([2]; oral): 20-12%
Fraction Metabolized [3]: >90%

CC(C)(C)NC(=O)[C@@H]1C[C@@H]2CCCC[C@@H]2CN1C[C@@H](O)[C@H](Cc1ccccc1)NC(=O)[C@H](CC(N)=O)NC(=O)c1ccc2ccccc2n1 [Saquinavir]
Fraction Metabolized [3]: >90%

CN[C@H]1CC[C@@H](c2ccc(Cl)c(Cl)c2)c2ccccc21 [Sertraline]
Fraction Metabolized [3]: >90%

CO[C@H]1C[C@@H]2CC[C@@H](C)[C@@](O)(O2)C(=O)C(=O)N2CCCC[C@H]2C(=O)O[C@H]([C@H](C)C[C@@H]2CC[C@@H](O)[C@H](OC)C2)CC(=O)[C@H](C)/C=C(\C)[C@@H](O)[C@@H](OC)C(=O)[C@H](C)C[C@H](C)/C=C/C=C/C=C/1C [Sirolimus(rapamycin), Sirolimus]
Oral Bioavailability ([2]; oral): 20-10%
Fraction Metabolized [3]: >90%

C=CC[C@@H]1/C=C(\C)C[C@H](C)C[C@H](OC)[C@H]2O[C@@](O)(C(=O)C(=O)N3CCCC[C@H]3C(=O)O[C@H](/C(C)=C/[C@@H]3CC[C@@H](O)[C@H](OC)C3)[C@H](C)[C@@H](O)CC1=O)[C@H](C)C[C@@H]2OC [Tacrolimus (FK506), Tacrolimus]
Oral Bioavailability ([2]; oral): 20-15%
Fraction Metabolized [3]: >90%

C[C@]12CC[C@H]3[C@@H](CCC4=CC(=O)CC[C@@]43C)[C@@H]1CC[C@@H]2O [Testosterone]
Oral Bioavailability ([2]; oral): Poor
Fraction Metabolized [3]: >90%

Cc1nnc2n1-c1ccc(Cl)cc1C(c1ccccc1Cl)=NC2 [Triazolam]
Oral Bioavailability ([2]; oral): 45-70%
Fraction Metabolized [3]: >90%

CC[C@]1(O)C[C@@H]2CN(CCc3c([nH]c4ccccc34)[C@@](C(=O)OC)(c3cc4c(cc3OC)N(C)[C@H]3[C@@](O)(C(=O)OC)[C@H](OC(C)=O)[C@]5(CC)C=CCN6CC[C@]43[C@@H]65)C2)C1 [Vinblastine]
Oral Bioavailability ([2]; oral): Poor
Fraction Metabolized [3]: >50%

CC[C@]1(O)C[C@H]2CN(CCc3c([nH]c4ccccc34)[C@@](C(=O)OC)(c3cc4c(cc3OC)N(C=O)[C@H]3[C@@](O)(C(=O)OC)[C@H](OC(C)=O)[C@]5(CC)C=CCN6CC[C@]43[C@@H]65)C2)C1 [Vincristine]
Oral Bioavailability ([2]; oral): Poor
Fraction Metabolized [3]: >50%

C#C[C@]1(O)C=C[C@H]2[C@@H]3CCC4=CC(=O)CC[C@@H]4[C@H]3CC[C@@]21CC [gestodene]
Kinactivation [4]: 0.4 min⁻¹
